Reference: ChEMBL document CHEMBL5321205, “Development and therapeutic potential of adaptor-associated kinase 1 inhibitors in human multifaceted diseases” (Eur J Med Chem, 2023)

Assays:
[1] = Half life in mouse at 10 mg/kg, po or 1 mg/kg, iv measured upto 24 hrs; format: ADME, organism-based; conditions: in vivo
[2] = Oral bioavailability in mouse at 10 mg/kg measured upto 24 hrs; format: ADME, organism-based; conditions: in vivo
[3] = target: T1, AP2-associated protein kinase 1 (Homo sapiens, UniProt Q2M2I8); experiment: Inhibition of GST-tagged recombinant AAK1 (unknown origin) using AP2M1 peptide as substrate by ADP-Glo kinase assay
T1 sequence (Q2M2I8 whole entry): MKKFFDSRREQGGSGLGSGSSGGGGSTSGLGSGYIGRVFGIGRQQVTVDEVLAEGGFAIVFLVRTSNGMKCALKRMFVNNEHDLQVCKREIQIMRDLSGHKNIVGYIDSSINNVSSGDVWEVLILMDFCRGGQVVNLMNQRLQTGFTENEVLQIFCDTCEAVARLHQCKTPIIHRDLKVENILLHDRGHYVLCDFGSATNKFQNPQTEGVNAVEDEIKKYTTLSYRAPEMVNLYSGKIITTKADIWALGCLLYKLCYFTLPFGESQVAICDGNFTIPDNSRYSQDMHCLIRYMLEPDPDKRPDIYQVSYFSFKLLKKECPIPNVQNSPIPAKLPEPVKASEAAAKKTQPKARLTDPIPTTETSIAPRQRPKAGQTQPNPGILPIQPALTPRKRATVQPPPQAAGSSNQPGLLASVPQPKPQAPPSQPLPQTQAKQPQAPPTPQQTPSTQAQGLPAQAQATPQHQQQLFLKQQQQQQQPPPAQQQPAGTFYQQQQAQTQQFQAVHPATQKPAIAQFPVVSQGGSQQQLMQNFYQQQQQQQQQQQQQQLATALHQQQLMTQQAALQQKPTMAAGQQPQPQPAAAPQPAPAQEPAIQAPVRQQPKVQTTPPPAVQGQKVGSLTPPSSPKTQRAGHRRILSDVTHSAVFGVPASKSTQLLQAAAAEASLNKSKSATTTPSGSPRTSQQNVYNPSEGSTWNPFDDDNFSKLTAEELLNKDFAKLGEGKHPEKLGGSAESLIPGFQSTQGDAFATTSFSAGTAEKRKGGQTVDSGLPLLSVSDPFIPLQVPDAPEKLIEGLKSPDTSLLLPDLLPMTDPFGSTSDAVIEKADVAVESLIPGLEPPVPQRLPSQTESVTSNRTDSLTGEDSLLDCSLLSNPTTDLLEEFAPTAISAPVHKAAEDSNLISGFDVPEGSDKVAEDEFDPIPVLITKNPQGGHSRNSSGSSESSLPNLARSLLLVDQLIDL

[4] = target: T1, AP2-associated protein kinase 1; experiment: Inhibition of AAK1 expressed in human […] cells; format: cell-based, HEK293F
[5] = target: T1, AP2-associated protein kinase 1; experiment: Inhibition of GST-Xa-tagged recombinant human AAK1 using (5-FAM)-Aha-KEEQSQITSQVTGQIGWR-NH2 as substrate assessed as reduction in AP2M1 phosphorylation incubated for 3 hrs in presence of ATP by fluorescence based assay
[6] = target: T1, AP2-associated protein kinase 1; experiment: Binding affinity of AAK1 (unknown origin) assessed as dissociation constant
[7] = target: T1, AP2-associated protein kinase 1; experiment: Inhibition of AAK1 (unknown origin)

## COc1ncccc1-c1cnn2ccc(N3CCN(C(=O)OC(C)C)CC3)nc12
[1]
  half-life: 3.6 h
[2]
  bioavailability: 100%

## COC(=O)[C@@]1(O)C[C@@H]2O[C@]1(C)n1c3ccccc3c3c4c(c5c6ccccc6n2c5c31)C(=O)NC4
[3]
  IC50: < 10 nM

## CC(C)C[C@](C)(N)COc1ccc(-c2ccncc2)cc1C(F)(F)F
[4]
  IC50: 2.9 nM

## [3H]CC([3H])(C[3H])C([3H])[C@H](N)COc1ccc2c(c1)[nH]c(=O)c1cnccc12 (stereo partly specified)
[5]
  IC50: 2.8 nM

## COC(=O)c1ccc2c(c1)NC(=O)C2C(Nc1ccc(N(C)C(=O)CN2CCN(C)CC2)cc1)c1ccccc1 (stereo unspecified)
[6]
  Kd: 1060 nM

## COc1ncccc1-c1cnc2ccc(N3CC[C@@H](N(C)C(=O)OC(C)C)C3)nn12
[7]
  IC50: < 10 nM
[6]
  Kd: 1 nM

## COC(=O)[C@@]1(O)[C@@H](C)[C@H]2O[C@]1(C)n1c3ccccc3c3c4c(c5c6ccccc6n2c5c31)C(=O)NC4
[3]
  IC50: < 30 nM

## COc1ncccc1-c1cnc2ccc(N3CC[C@@H](N(C)C(=O)OC(C)(C)C)C3)nn12
[7]
  IC50: < 10 nM
[6]
  Kd: 1 nM
